Assay results reported in patent US12247106B2, “Onium-functionalized siloxanes” (Henkel AG & Co. KGaA, priority 2019, dated 2025).

Legend:
Experiment in all cases: Kirby-Bauer Test (Zone of Inhibition), agar diffusion
Type in all cases: cell-based
[1] = system: Aspergillus brasiliensis (ATCC 16404)
Method: (§1) Kirby-Bauer Test (Zone of Inhibition):
(§2) The Kirby-Bauer Test is also known as Agar Diffusion Test and can be used for determination of antimicrobial activity in combination with diffusion properties. […] A suspension of the bacterial or fungal strain of interest is spread evenly over the face of a sterile agar plate. The antimicrobial test substrate (preferential liquid aggregation state) is applied to the center of the agar plate onto a small filter paper. The agar plate is incubated for a defined time at a temperature suitable for the test microorganisms. If the test substrate leaches from the filter paper into the agar and it further contains antimicrobial activity, a zone of inhibition is formed around the filter paper.

[2] = system: Exophiala dermatitidis (isolate)
Method: as §1, §2

[3] = system: Staphylococcus aureus (ATCC 6538)
Method: as §1, §2

[4] = dilution ratio 1:10, maximum 45 mm
[5] = dilution ratio 1:100, maximum 45 mm

c1ccncc1 [Pyridine]
Zone of Inhibition [1, 4]: 0.0 mm | Zone of Inhibition [1, 5]: 0.0 mm | Zone of Inhibition ([1]; undiluted, maximum 45 mm): 0.0 mm | Zone of Inhibition [2, 4]: 0.0 mm | Zone of Inhibition [2, 5]: 0.0 mm | Zone of Inhibition ([2]; undiluted, maximum 45 mm): 1.0 mm | Zone of Inhibition [3, 4]: 0.0 mm | Zone of Inhibition [3, 5]: 0.0 mm | Zone of Inhibition ([3]; undiluted, maximum 45 mm): 1.0 mm

CCCCn1ccnc1 [1-Butyl-1H-imidazole]
Zone of Inhibition ([1]; undiluted, maximum 45 mm): 5.0 mm | Zone of Inhibition ([2]; undiluted, maximum 45 mm): 15.0 mm | Zone of Inhibition ([3]; undiluted, maximum 45 mm): 11.0 mm

Cn1ccnc1 [1-methyl-1H-imidazole]
Zone of Inhibition [1, 4]: 0.0 mm | Zone of Inhibition [1, 5]: 0.0 mm | Zone of Inhibition ([1]; undiluted, maximum 45 mm): 3.5 mm | Zone of Inhibition [2, 4]: 0.0 mm | Zone of Inhibition [2, 5]: 0.0 mm | Zone of Inhibition ([2]; undiluted, maximum 45 mm): 12.3 mm | Zone of Inhibition [3, 4]: 0.0 mm | Zone of Inhibition [3, 5]: 0.0 mm | Zone of Inhibition ([3]; undiluted, maximum 45 mm): 6.5 mm
